Several values for one entry are separate records, joined by “and”; a condition that tells them apart may be missing. Equal entries are not always repeated. Structures can show the parent of a compound that is named as a salt.
Legend:
[1] = Comparison of solubility in water of meloxicam salts by UV analysis
[2] = Solubility of meloxicam in water near the neutral pH region; type: physicochemical; conditions: at 25° C.
[3] = pH of the aqueous solution at the concentration of the same line, below saturation
[4] = pH of the saturated aqueous solution (SAS)

| pH [1, 3] | pH [1, 4] | solubility of meloxicam in water, saturated concentration [2] | Compound |
| --- | --- | --- | --- |
| 8.57 and 8.64 and 8.73 | 9.02 | – | CNC[C@H](O)[C@@H](O)[C@H](O)[C@H](O)CO.Cc1cnc(NC(=O)C2=C(O)c3ccccc3S(=O)(=O)N2C)s1 [Meglumine Salt, meglumine salt of meloxicam] |
| 7.52 and 7.71 | 7.93 | – | Cc1cnc(NC(=O)C2=C(O)c3ccccc3S(=O)(=O)N2C)s1 [Trometamol Salt, trometamol salt of meloxicam] |
| – | – | about 0.2 mg/100 mL | Cc1cnc(NC(=O)C2=C(O)c3ccccc3S(=O)(=O)N2C)s1 [meloxicam] |
| – | 8.06 | – | Cc1cnc(NC(=O)C2=C([O-])c3ccccc3S(=O)(=O)N2C)s1.[Na+] [Sodium Salt, Sodium salt of meloxicam] |

— patent US7105512B2, “Ophthalmic aqueous pharmaceutical preparation” (Wakamoto Pharmaceutical Co., Ltd., priority 1999, dated 2006)
